# Laboratory results: patent US20150105349A1, “(R)-(-)-1,2-propanediol compositions and methods” (priority 2013, published 2015)
# Where two headings read alike, the source gives them in different places.
# Key:
# TRPM8 receptor = TRPM8 receptor (Homo sapiens, UniProt Q7Z2W7); settings: cited from earlier work
# [1] = tested on: itch (contact dermatitis) on the scalp; assay: topical application to scalp itch (contact dermatitis after hair dye), one individual; type: in vivo, human; settings: 5 mg/mL in 1% ethanol-99% (R)-1,2-propanediol, Yorker spout bottle
# Procedure: An individual developed intense itch (contact dermatitis) on the scalp at the base of the skull after use of hair dye. A cotton-tipped stick was used to apply CPS-410 or CPS-412, 5 mg/mL dissolved in a 1% ethanol-99% (R)-1,2-propanediol, to the site of itch. The itch sensations were suppressed within 5 min after application of either solution and this effect lasted for at least 8 hr. In a second experiment, the solutions were applied using a plastic bottle with a conical Yorker spout. This allowed more precise droplet delivery of the solution to the site of itch. […] The advantage of liquid formulation is the ease of uniform delivery to the inflamed site, a method not achievable with cream or ointment. Itch symptoms of hair and fur occur in seborrheic dermatitis, psoriasis, insect bites, canine pruritus, and allergic dermatitis. Liquid formulations containing (R)-1,2-propanediol and a cooling agent may be therapeutically valuable in these conditions.
# philtrum skin [2] = assay: philtrum skin cooling bioassay (subjective coolness rating 0-3); type: in vivo, human; settings: for Ratio of AUC 75/25% R/S to 25/75% R/S (fold increase in cooling activity): 49% distilled water, 1% ethanol
# From the text: The term “alcoholic solvent” refers to a chemical with one to four carbons with at least one hydroxyl group attached to a carbon atom. A reliable place for topical application is the skin above the upper lip (above the vermilion border of the lips), on the philtrum, lateral to the philtrum until the nasolabial folds, and on the lower nostrils (subnasale). This part of the face is known to be densely innervated with cold receptors, second only to the surfaces of the eyeball and anogenitalia. Tingling, cool and cold sensations from the skin may be experienced and rated for time of onset and intensity.
# The intervals for recording sensations are 5 to 10 minutes, until two successive zeros are obtained. The results (shown in the Figures) are averaged values of 4 to 6 separate trials in the same individual. The data are plotted using SigmaPlot (Systat Software, Point Richmond, Calif.) and a smoothing function with a negative exponential was used for analysis and statistical fit of the results. The onset of drug action is taken as the time to reach 2 units of coolness intensity, and offset of drug action is the time when coolness intensity drops below 2, after previously surpassing 2 units. […] The duration of cooling action is defined as the offset time minus the onset time and the primary index of effect. As described in Examples, the test compounds were tested at 2 to 10 mg/mL of vehicle.
# For assays on the skin, the cooling agent(s) was dissolved in the alcoholic solvent to yield a 2, 2.5, 3, 5 or 10 mg/mL solution. Using a cotton-tipped applicator (e.g. Q-tips®) 0.10 to 0.25 mL of the test solution was applied to the skin above the upper lip, on the philtrum, and lateral to the philtrum up to the nasolabial folds, and the onset and duration of cooling sensations noted. […] The interval for recording sensations was at 5 to 10 minute intervals, until at least two successive zeros were obtained. The results were averaged values of 3 to 6 separate trials in the same individual. The “onset” is the time taken to reach a coolness intensity value of 2. […] The “off-set” is when the coolness intensity drops below 2, and the duration is the time of off-set minus the time of onset. The area under the curve (AUC) gives an estimate of the intensity and duration of drug action and can be obtained from the plotted data using SigmaPlot (Systat Software, Point Richmond, Calif.). The AUC unit is the product of cooling intensity x min.
# [3] = biological target: T1, cloned hTRPM8 channel (human TRPM8 gene, expressed in CHO cells) (Homo sapiens, UniProt Q7Z2W7); assay: agonist activity on cloned hTRPM8 channel, Fluo-8 calcium kit, FLIPR; type: cell-based
# T1 construct: host or cells: CHO cells
# Procedure: The in vitro effects of test articles were evaluated on cloned hTRPM8 channel (encoded by the human TRPM8 gene, expressed in CHO cells) using a Fluo-8 calcium kit and a Fluorescence Imaging Plate Reader (FLIPR^TETRA™) instrument. […] The total number of carbons in these trialkylphosphine oxides ranged from 12 to 15.
# To further examine solvent-receptor interactions, stock solutions of 1-7 [1-(Diisopropyl-phosphinoyl)-heptane] were prepared in dimethyl sulfoxide (DMSO) or DMSO containing 10% or 30% by volume of the three isomers of 1,2-propanediol, (R/S-PD, R-PD, and S-PD) and stored frozen. Six dose levels were tested ranging from 0.003 to 3 μM. Ten μl of the test article solution were added to 40 μl of cells in HBPS in glass-lined 384-well compound plates, and placed into the FLIPR instrument for the fluorescence readout (Molecular Devices Corporation, Union City, Calif.).
# [4] = tested on: periorbital skin and skin above the cheekbone; assay: cosmetic wipe over periorbital skin and skin above the cheekbone, six female subjects; type: in vivo, human; settings: 10 mg/mL in water (50%), 10% (S)-, 40% (R)-1,2-propanediol
# Procedure: Six female subjects working at a cosmetics company volunteered to try topical applications of 1-7 and/or 1-8, formulated at 10 mg/mL in water (50%) and 10% (S)-1,2-propanediol, 40% (R)-1,2-propanediol wt/wt. The liquid was put on a cotton square and wiped over the periorbital skin and the skin above the cheekbone. All the subjects remarked on a refreshing coolness on the skin at the sites of application within 2 min after application. There was a “wow” effect, that was considered pleasant and stimulating. […] Four of the six subjects said they felt more “awake and energetic.”
# [5] = tested on: dorsal surface of the tongue; settings: 6 subjects; 100-fold variation in individual sensitivity; cited from earlier work
# [6] = tested on: axillary skin lesion of plaque psoriasis (itch, burning); assay: topical application to axillary plaque psoriasis lesion, one subject; type: in vivo, human; settings: 2% in 1% ethanol-99% (R)-1,2-propanediol, swab stick, first application at night
# From the text: A person with an 8-year history of plaque psoriasis complained of an axillary skin lesion that itched, had burning sensations, and kept them awake at night. Their condition was severe and chronic. Their parent complained that they had to vacuum their bedroom every day in order to remove flaking skin debris. […] They volunteered to try CPS-148, 2% dissolved in 1% ethanol-99% (R)-1,2-propanediol, and was given instructions on how to apply the solution to their site of itch with a swab stick (Q-tip™). They claimed after the first time of application at night the burning sensations and itch disappeared within 5 to 10 min and they were able to have a good nights sleep. They continued to use the solution on an “as-needed basis” for one month and claimed that they slept much better than before.
# philtrum skin [7] = assay: philtrum skin cooling bioassay (subjective coolness rating 0-3); type: in vivo, human
# rodents = settings: oral; cited from earlier work
# humans = settings: based on intravenous infusion studies; cited from earlier work
# [8] = TRPM8 receptor assay, read-out: EC50 μM (95% C, L.)
# [9] = 10 mg/mL in (R)-1,2-propanediol
# T1 sequence (Q7Z2W7 whole entry): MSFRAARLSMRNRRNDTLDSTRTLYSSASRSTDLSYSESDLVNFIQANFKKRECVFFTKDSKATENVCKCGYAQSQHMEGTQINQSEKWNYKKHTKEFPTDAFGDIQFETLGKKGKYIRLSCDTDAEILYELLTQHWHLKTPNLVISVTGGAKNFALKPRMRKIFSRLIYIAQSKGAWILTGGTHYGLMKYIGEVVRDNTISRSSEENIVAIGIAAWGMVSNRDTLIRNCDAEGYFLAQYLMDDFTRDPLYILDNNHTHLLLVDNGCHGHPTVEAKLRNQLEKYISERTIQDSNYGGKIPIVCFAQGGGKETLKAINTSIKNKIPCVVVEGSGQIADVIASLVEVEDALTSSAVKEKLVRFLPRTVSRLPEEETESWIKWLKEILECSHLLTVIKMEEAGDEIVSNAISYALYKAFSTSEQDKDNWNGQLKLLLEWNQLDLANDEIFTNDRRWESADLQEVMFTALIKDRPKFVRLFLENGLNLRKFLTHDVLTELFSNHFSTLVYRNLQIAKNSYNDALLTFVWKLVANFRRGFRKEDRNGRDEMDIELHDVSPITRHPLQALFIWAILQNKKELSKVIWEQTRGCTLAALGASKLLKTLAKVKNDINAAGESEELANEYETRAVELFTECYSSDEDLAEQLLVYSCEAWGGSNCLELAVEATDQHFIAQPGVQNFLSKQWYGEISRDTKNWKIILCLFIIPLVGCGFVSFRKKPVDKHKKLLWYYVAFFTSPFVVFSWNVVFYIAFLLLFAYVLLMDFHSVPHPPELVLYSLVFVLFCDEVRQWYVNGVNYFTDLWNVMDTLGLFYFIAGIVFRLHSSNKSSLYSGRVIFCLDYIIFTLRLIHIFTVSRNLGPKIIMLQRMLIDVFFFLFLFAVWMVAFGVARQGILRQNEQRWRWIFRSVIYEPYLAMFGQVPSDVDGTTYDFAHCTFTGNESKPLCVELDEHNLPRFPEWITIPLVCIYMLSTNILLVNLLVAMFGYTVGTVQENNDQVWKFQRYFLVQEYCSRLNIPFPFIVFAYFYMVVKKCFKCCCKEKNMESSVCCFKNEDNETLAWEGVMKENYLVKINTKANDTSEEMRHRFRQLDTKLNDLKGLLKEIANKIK
# Chain of TRPM8 receptor (Q7Z2W7 whole entry): as above
molecule,measurement,setting,value
CCO [ethanol],inhibition of TRPM8 receptor response to (−)-menthol,TRPM8 receptor; 0.5% ethanol in the medium,50%
same,TRPM8 receptor response to (−)-menthol,TRPM8 receptor; 3% concentration of ethanol,almost totally lost
"CCCCOC(=O)[C@@H](C)NC(=O)[C@@H]1C[C@H](C)CC[C@H]1C(C)C [CPS-412, (R)-2-[((1R,2S,5R)-2-isopropyl-5-methyl-cyclohexanecarbonyl)-amino]-propionic acid n-butyl ester]",sensations of coolness after application to scalp,[1],less noticeable
CCCCCP(=O)(C(C)CC)C(C)CC (stereo not drawn) [2-5],Ratio of AUC 75/25% R/S to 25/75% R/S (fold increase in cooling activity),philtrum skin [2],1.4
same,Potency Relative to I-menthol,[3]; TRPM8 receptor assay,2.2
same,EC50,[3]; [8],1.7 µM
CCCCP(=O)(C(C)CC)C(C)CC (stereo not drawn) [2-4],Ratio of AUC 75/25% R/S to 25/75% R/S (fold increase in cooling activity),philtrum skin [2],1.9
same,Potency Relative to I-menthol,[3]; TRPM8 receptor assay,0.3
same,EC50,[3]; [8],14.5 µM
"CCCCCCCP(=O)(C(C)C)C(C)C [1-7, 1-(Diisopropyl-phosphinoyl)-heptane]",Ratio of AUC 75/25% R/S to 25/75% R/S (fold increase in cooling activity),philtrum skin [2],1.6
same,"ratio of the EC50 for the R versus S enantiomers of 1,2-propanediol",[3]; C.L. overlap,about 2
same,EC50,"[3]; HBPS, 30% volume series, read-out: EC50 (95% C.L.)",1.6 µM
same,Potency Relative to I-menthol,[3]; TRPM8 receptor assay,5.4
same,EC50,[3]; [8],0.7 µM
same,EC50,"[3]; stock in DMSO containing 30% by volume R-PD, read-out: EC50 (95% C.L.)",2.2 µM
same,EC50,"[3]; stock in DMSO containing 30% by volume R/S-PD, read-out: EC50 (95% C.L.)",2.9 µM
same,EC50,"[3]; stock in DMSO containing 30% by volume S-PD, read-out: EC50 (95% C.L.)",4.4 µM
same,irritation or redness on the skin after applications,[4],no irritation or redness
same,time facial skin felt cool and dry after application,[4]; all subjects,at least one hour
"CC(C)[C@@H]1CC[C@@H](C)C[C@H]1O (single isomer, unassigned) [(−)-menthol, reference compound]",cooling duration,"philtrum skin [2]; 10 mg/mL in 1,3-propanediol",13 ± 1 min
same,cooling duration,philtrum skin [2]; [9],21 ± 2 min
same,"average threshold for cooling on tongue (Threshold, μg)",[5],0.25 µg
CCCCCCCCCP(=O)(C(C)C)C(C)C [1-9],Potency Relative to I-menthol,[3]; TRPM8 receptor assay,4.0
same,EC50,[3]; [8],0.9 µM
"(R)-(−)-1,2-propanediol [(R)-1,2-propanediol]",effect on ethanol inhibition of WS-5 cooling,"philtrum skin [2]; added at 10%, 20% and 40% vol/vol to ethanolic solution of WS-5 10 mg/mL",reversed the ethanol inhibition in a dose-dependent relationship
"CCCCCCCP(=O)(C(C)CC)C(C)CC (stereo not drawn) [CPS-148, 1-(Di-sec-butyl-phosphinoyl)-heptane]",Ratio of AUC 75/25% R/S to 25/75% R/S (fold increase in cooling activity),philtrum skin [2],2.3
same,agonism at the TRPM8 ion channel,[3],activates TRPM8
same,Potency Relative to I-menthol,[3]; TRPM8 receptor assay,3.4
same,EC50,[3]; [8],1.1 µM
same,time to disappearance of burning sensations and itch,[6],5 to 10 min
"CCOC(=O)[C@@H](C)NC(=O)[C@@H]1C[C@H](C)CC[C@H]1C(C)C [CPS-369, (R)-2-[((1R,2S,5R)-2-isopropyl-5-methyl-cyclohexanecarbonyl)-amino]-propionic acid ethyl ester]","Cooling Activity % (relative to (R)-1,2-propanediol)","philtrum skin [2]; 10 mg/mL in 1,3-propanediol, inactive = did not exceed 2 units of coolness",inactive
same,"Cooling Activity % (relative to (R)-1,2-propanediol)",philtrum skin [2]; [9],100%
same,"Cooling Activity % (relative to (R)-1,2-propanediol)","philtrum skin [2]; 10 mg/mL in (S)-1,2-propanediol, based on AUC",47%
same,"Cooling Activity % (relative to (R)-1,2-propanediol)","philtrum skin [2]; 10 mg/mL in ethanol, inactive = did not exceed 2 units of coolness",inactive
same,"Cooling Activity % (relative to (R)-1,2-propanediol)","philtrum skin [2]; 10 mg/mL in isopropanol, inactive = did not exceed 2 units of coolness",inactive
same,"Cooling Activity % (relative to (R)-1,2-propanediol)","philtrum skin [2]; 10 mg/mL in n-propanol, inactive = did not exceed 2 units of coolness",inactive
same,"Cooling Activity % (relative to (R)-1,2-propanediol)","philtrum skin [2]; 10 mg/mL in racemic 1,3-butanediol",10%
"CCNC(=O)C1CC(C)CCC1C(C)C (stereo not drawn) [WS-3, 2-Isopropyl-5-methyl-cyclohexanecarboxylic acid ethylamide]",duration of robust cooling,"philtrum skin [7]; 20 mg/mL in 97% (R)-1,2-propanediol-3% ethanol, with prickling and stinging sensations",38 ± 3 min
same,cooling effect,philtrum skin [7]; 20 mg/mL in absolute ethanol,did not produce significant cooling
CCCCCP(=O)(C(C)C)C(C)C [1-5],Ratio of AUC 75/25% R/S to 25/75% R/S (fold increase in cooling activity),philtrum skin [2],1.5
same,Potency Relative to I-menthol,[3]; TRPM8 receptor assay,0.7
same,EC50,[3]; [8],5.6 µM
CCCCCCP(=O)(C(C)C)C(C)C [1-6],Ratio of AUC 75/25% R/S to 25/75% R/S (fold increase in cooling activity),philtrum skin [2],1.7
same,Potency Relative to I-menthol,[3]; TRPM8 receptor assay,1.6
same,EC50,[3]; [8],2.4 µM
"CC(O)CO (racemic) [racemic 1,2-propanediol]",median lethal dose,rodents,about 25 mL/kg of body weight
same,estimated safe dose,humans,1 g per kg body weight per day
"CCCCCCP(=O)(C(C)CC)C(C)CC (stereo not drawn) [CPS-147, 1-(Di-sec-butyl-phosphinoyl)-hexane]",Ratio of AUC 75/25% R/S to 25/75% R/S (fold increase in cooling activity),philtrum skin [2],1.6
same,Potency Relative to I-menthol,[3]; TRPM8 receptor assay,4.7
same,EC50,[3]; [8],0.8 µM
CCCCCCCCP(=O)(C(C)CC)C(C)CC (stereo not drawn) [2-8],Potency Relative to I-menthol,[3]; TRPM8 receptor assay,2.9
same,EC50,[3]; [8],1.3 µM
"CCOC(=O)CNC(=O)[C@@H]1C[C@H](C)CC[C@H]1C(C)C [WS-5, [((1R,2S,5R)-2-isopropyl-5-methyl-cyclohexanecarbonyl)-amino]-acetic acid ethyl ester, reference compound]",cooling effect,philtrum skin [2]; 10 mg/mL in 100% ethanol,did not produce any cooling effect
"CCCOC(=O)[C@@H](C)NC(=O)[C@@H]1C[C@H](C)CC[C@H]1C(C)C [CPS-410, (R)-2-[((1R,2S,5R)-2-isopropyl-5-methyl-cyclohexanecarbonyl)-amino]-propionic acid n-propyl ester]",sensations of coolness after application to scalp,[1],produced sensations of coolness
